Results as given in US20070218150A1, “Active Oxygen Scavenging Agent and Moisturizing Agent Containing Wild Watermelon Extract” (priority 2004, published 2007).

Assay: active oxygen (hydroxyl radical) scavenging, competitive reaction analysis using salicylic acid oxidation as an index
Assay type: biochemical
Conditions: 50 mg/l of citrulline solution; 25 degrees, 90 minutes, pH 7.4
Description: The active oxygen scavenging ability of the wild watermelon fruit extract is assayed by competitive reaction analysis using salicylic acid oxidation as an index. Specifically, 2 mM salicylic acid and the wild watermelon fruit extract of various concentrations are dissolved in 50 mM phosphate buffer (pH 7.4). After that, by adding 0.6 mM of hydrogen peroxide, 0.15 mM of FeEDTA and 0.26 mM of ascorbic acid, hydroxyl radical is generated, and reacted at 25 degrees for 90 minutes. Quantitation of dihydroxyl benzoic acid (DHBA) generated by salicylic acid oxidation followed the method as set forth in the literature (Smirnofff and Cumbes (1989) Phytochemistry, 28: 1057-1060.)

SMILES: NC(=O)NCCC[C@H](N)C(=O)O [citrulline]
- inhibition of salicylic acid oxidation: 6%
